{"source": "patent US8962549B2", "about": "“Polymeric benzyl carbonate-derivatives” (Baxter International Inc., priority 2008, dated 2015)", "assay": "Release of tryptophan from PEG-tryptophan: incubation in cleavage buffer at 37° C., HPLC analysis", "assay_type": "physicochemical", "details": "detection at 280 nm", "procedure": "A 0.10 mL aliquot of the PEGylated tryptophan reaction solution from Example 7 was diluted with 0.60 mL PBS buffer (0.10 M, NaCl, 0.10 M, Glycine 0.10M, pH 7.5) and incubated at 37° C. in an oven. Aliquots of 0.10 mL were withdrawn at incubation intervals of 2, 7, 32 and 102 hours, and were quenched with 10 μl of HCl (1.0 N diluted with 0.4 mL 20% acetonitrile containing 0.01% trifluoroacetic acid) for HPLC analysis (0.10 mL injection).\nThe above procedure was repeated using a cleavage solution with a pH of 8.5 and incubation intervals of 1, 6, 24, and 32 hours.\nBoth the PEG-tryptophan (Example 7) and cleavage samples were analyzed on C-18 reversed-phase HPLC with detection at 280 nm. The HPLC conditions are the following: C-18 column (Waters Symmetry, 4.6×250 mm), flow rate of 1.0 mL/min, gradient of acetonitrile 20% to 80% over 15 minutes followed by 10 minutes of washing at 80% acetonitrile (all contain 0.01% trifluoroacetic acid).", "data": [{"smiles": "N[C@@H](Cc1c[nH]c2ccccc12)C(=O)O", "note": "[Tryptophan]", "values": [{"measurement": "contents (HPLC integration area) of cleavage reaction", "setting": "pH 7.5 PBS with glycine 0.10 M, incubation time 2 hours", "value": 596}, {"measurement": "contents (HPLC integration area) of cleavage reaction", "setting": "pH 7.5 PBS with glycine 0.10 M, incubation time 7 hours", "value": 647}, {"measurement": "contents (HPLC integration area) of cleavage reaction", "setting": "pH 7.5 PBS with glycine 0.10 M, incubation time 32 hours", "value": 1329}, {"measurement": "contents (HPLC integration area) of cleavage reaction", "setting": "pH 7.5 PBS with glycine 0.10 M, incubation time 102 hours", "value": 2955}, {"measurement": "contents (HPLC integration area) of cleavage reaction", "setting": "pH 8.5 cleavage solution, incubation time 1 hour", "value": 735}, {"measurement": "contents (HPLC integration area) of cleavage reaction", "setting": "pH 8.5 cleavage solution, incubation time 6 hours", "value": 1183}, {"measurement": "contents (HPLC integration area) of cleavage reaction", "setting": "pH 8.5 cleavage solution, incubation time 24 hours", "value": 2442}, {"measurement": "contents (HPLC integration area) of cleavage reaction", "setting": "pH 8.5 cleavage solution, incubation time 32 hours", "value": 2498}]}]}
